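Assay format: 96-well plates, 48-hour exposure. Here, GI50 denotes the concentration required for 50% inhibition of growth.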 Activity calls are given as the source filed them. Cut-off read from the data, not from the text of the source: active = GI50 up to about 1.1 µM and inactive = higher.
Key:
Assay in all cases: growth of human tumour cells (NCI), 48 h
[1] = system: HCT-116
[2] = system: SK-MEL-28
[3] = system: TK-10
[4] = system: HOP-62
[5] = system: UACC-257
[6] = system: KM12
[7] = system: OVCAR-4
[8] = system: K562
[9] = system: SN12C
[10] = system: SF-295
[11] = system: OVCAR-8
[12] = system: M14
[13] = system: HT-29
[14] = system: NCI-H226
[15] = system: SK-OV-3
[16] = system: Hs-578T
[17] = system: T47D
[18] = system: LOX IMVI
[19] = system: MDA-MB-231
[20] = system: DU-145

Measured: GI50

O=C1CSC2=NC3=C(CSC/C3=C\c3ccccc3)C(c3ccccc3)N12 (stereo not given)
inactive: [1] 50.2 µM | [2] > 100 µM | [3] > 100 µM | [4] > 100 µM | [5] > 100 µM | [6] 70.3 µM | [7] > 100 µM | [8] 39.4 µM | [9] 92.9 µM | [10] > 100 µM | [11] 86.5 µM | [12] 41.5 µM | [13] 95.5 µM | [14] > 100 µM | [15] > 100 µM | [16] > 100 µM | [17] 52.2 µM | [18] 44.5 µM | [19] > 100 µM | [20] > 100 µM

COC1=C2C=[N+](C)C3C(=C2C=CC1OC)Cc1cc2c(cc13)OCO2 (stereo not given)
inactive: [1] 13.8 µM | [2] 15.1 µM | [3] 15.5 µM | [4] 13.9 µM | [5] 11.4 µM | [6] 2.8 µM | [7] 10.5 µM | [8] 6.93 µM | [9] 4.43 µM | [10] 15.3 µM | [11] 22 µM | [12] 15.5 µM | [13] 13.5 µM | [14] 15.4 µM | [15] 15.1 µM | [16] 13.7 µM | [17] 5.02 µM | [18] 16.3 µM | [19] 14.6 µM | [20] 14.5 µM

CC(O)CNC(=O)Nc1c(C(F)(F)F)cc(-c2ccccc2)[nH]c1=O (stereo not given)
inactive: [1] > 100 µM | [2] > 100 µM | [3] > 100 µM | [4] > 100 µM | [5] > 100 µM | [6] > 100 µM | [7] > 100 µM | [8] > 100 µM | [9] > 100 µM | [10] > 100 µM | [11] > 100 µM | [12] > 100 µM | [13] > 100 µM | [14] > 100 µM | [15] > 100 µM | [16] > 100 µM | [17] > 100 µM | [18] > 100 µM | [19] > 100 µM | [20] > 100 µM

Cc1ccc(N2C(=O)CC(=O)N(NC(=O)C(C)Oc3ccccc3C)C2=S)cc1 (stereo not given)
inactive: [1] > 100 µM | [2] > 100 µM | [3] > 100 µM | [4] > 100 µM | [5] > 100 µM | [6] > 100 µM | [7] > 100 µM | [8] 65.9 µM | [9] > 100 µM | [10] > 100 µM | [11] > 100 µM | [12] > 100 µM | [13] > 100 µM | [14] > 100 µM | [15] > 100 µM | [16] > 100 µM | [17] > 100 µM | [18] 70.6 µM | [19] > 100 µM | [20] > 100 µM

O=c1c2c3c(sc2nc2n1N=CN(c1ccc(Cl)cc1)C2)CCCC3
inactive: [1] 26.9 µM | [2] > 100 µM | [3] > 100 µM | [4] 50 µM | [5] 55.7 µM | [6] > 100 µM | [7] 52.6 µM | [8] 19.3 µM | [9] > 100 µM | [10] 70.1 µM | [11] 83.8 µM | [12] > 100 µM | [13] 19.5 µM | [14] 42.3 µM | [15] > 100 µM | [16] 3.93 µM | [17] 2.21 µM | [18] 36.3 µM | [19] 16.7 µM | [20] 21.3 µM

CC(C(=O)[O-])S(=O)(=O)O.CCc1c2cc(OC)c(OC)cc2cc2c3cc(OC)c(OC)cc3cc[n+]12
inactive: [1] 17.8 µM | [2] 21.7 µM | [3] 69.7 µM | [4] 41.7 µM | [5] 13.3 µM | [6] 17.8 µM | [7] 10.2 µM | [8] 7.57 µM | [9] 6.62 µM | [10] 67.3 µM | [11] 20 µM | [12] 51.1 µM | [13] 45.2 µM | [14] 9.73 µM | [15] 41.6 µM | [16] 4.81 µM | [17] 5.11 µM | [18] 27.5 µM | [19] 20.1 µM | [20] 14.2 µM

CC(C)(C)C1=CC(O)(c2c3ccccc3c(C3(O)C=C(C(C)(C)C)C(=O)C(C(C)(C)C)=C3)c3ccccc23)C=C(C(C)(C)C)C1=O
inactive: [1] > 100 µM | [2] > 100 µM | [3] > 100 µM | [4] > 100 µM | [5] > 100 µM | [6] > 100 µM | [7] > 100 µM | [8] 81.8 µM | [9] > 100 µM | [10] > 100 µM | [11] > 100 µM | [12] > 100 µM | [13] > 100 µM | [14] > 100 µM | [15] > 100 µM | [16] > 100 µM | [17] > 100 µM | [18] > 100 µM | [19] 27 µM | [20] > 100 µM

N#Cc1c(NC(=S)Nc2ccc(Cl)cc2)sc2c1CCN(N1CCc3c(sc(NC(=S)Nc4ccc(Cl)cc4)c3C#N)C1)C2
inactive: [1] 21.6 µM | [2] 24 µM | [3] 41 µM | [4] 16 µM | [5] 29.7 µM | [6] 55.2 µM | [7] 59.3 µM | [8] 22.4 µM | [9] 39.3 µM | [10] 16.1 µM | [11] 29.3 µM | [12] 11 µM | [13] 13.6 µM | [14] 16.1 µM | [15] > 100 µM | [16] 44.8 µM | [17] 21.6 µM | [18] 5.62 µM | [19] 12.7 µM | [20] 37.8 µM

COc1ccc(/C=C2\N=C3N(Cc4ccccc4)C=C(N)N3C2=O)cc1
inactive: [1] > 100 µM | [2] > 100 µM | [3] > 100 µM | [4] 39.3 µM | [5] 30.8 µM | [6] > 100 µM | [7] > 100 µM | [8] > 100 µM | [9] > 100 µM | [10] 61.2 µM | [11] 64.6 µM | [12] > 100 µM | [13] > 100 µM | [14] 55 µM | [15] 37.2 µM | [16] 28.8 µM | [17] > 100 µM | [18] > 100 µM | [19] 36.2 µM | [20] > 100 µM

c1cnc(N2CCN(Cc3c[nH]c4ccccc34)CC2)nc1
inactive: [1] 26.2 µM | [2] > 100 µM | [3] 22.9 µM | [4] 56.1 µM | [5] 28.8 µM | [6] 20.4 µM | [7] 52 µM | [8] 40 µM | [9] 42.1 µM | [10] 38.3 µM | [11] 95.9 µM | [12] 45.4 µM | [13] 56.6 µM | [14] 58.7 µM | [15] > 100 µM | [16] > 100 µM | [17] 22.6 µM | [18] 45.8 µM | [19] 37.2 µM | [20] 23.9 µM

From ChEMBL document CHEMBL1201862, “PubChem BioAssay data set” (2004)
